Measurements as given in patent publication US20250346585A1 (Alexion Pharmaceuticals, Inc., priority 2022, published 2025).

molecular target: Human complement C1s enzyme (Homo sapiens (Human), UniProt P09871); assay: Human C1s enzyme assay; assay type: biochemical; conditions: Human C1s enzyme assay of Example 3; read-out: IC50 (Stars)
Summary of the method: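 IC50 derived by nonlinear regression of rate versus concentration, with rate taken from A405 kinetics (30 s intervals, 30 min) after adding 100 μM each Z-L-Lys-SBzl and DTNB. C1s from human serum, 1.16 nM, exposed to compound for 5 min at RT beforehand; buffer 50 mM Tris, 1 M NaCl, pH 7.5.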

Sequence of Human complement C1s enzyme (P09871 438-688 limits assumed): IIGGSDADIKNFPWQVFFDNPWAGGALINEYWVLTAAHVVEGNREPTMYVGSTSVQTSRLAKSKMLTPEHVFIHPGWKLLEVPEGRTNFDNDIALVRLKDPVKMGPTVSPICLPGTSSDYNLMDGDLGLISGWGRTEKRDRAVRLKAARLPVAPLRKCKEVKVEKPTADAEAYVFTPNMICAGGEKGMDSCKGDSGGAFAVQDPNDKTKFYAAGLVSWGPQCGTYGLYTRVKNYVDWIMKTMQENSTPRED
Sequence of Human complement C1s enzyme (P09871 16-437 partner limits assumed): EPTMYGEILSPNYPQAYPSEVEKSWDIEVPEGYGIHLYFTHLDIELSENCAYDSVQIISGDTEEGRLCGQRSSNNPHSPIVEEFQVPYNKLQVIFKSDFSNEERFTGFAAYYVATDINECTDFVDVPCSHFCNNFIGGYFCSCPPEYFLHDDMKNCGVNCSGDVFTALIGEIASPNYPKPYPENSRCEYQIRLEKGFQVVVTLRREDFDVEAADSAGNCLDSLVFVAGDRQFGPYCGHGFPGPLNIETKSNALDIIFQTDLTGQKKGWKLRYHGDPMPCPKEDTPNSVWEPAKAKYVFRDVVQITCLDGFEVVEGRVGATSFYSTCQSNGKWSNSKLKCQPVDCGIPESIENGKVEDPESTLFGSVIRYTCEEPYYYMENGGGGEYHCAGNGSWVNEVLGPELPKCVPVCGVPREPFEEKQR

Row | Structure (SMILES) | IC50
1 | N=C(N)c1csc(CNC(=O)[C@@H]2CC3(CN2C(=O)CNC(=O)c2ccc(-c4cc(F)cc(F)c4)cc2)OCCO3)c1 [Compound 189, (S)—N-((4-carbamimidoylthiophen-2-yl)methyl)-7-((3′,5′-difluoro-[1,1′-biphenyl]-4-carbonyl)glycyl)-1,4-dioxa-7-azaspiro[4.4]nonane-8-carboxamide] | < 100 nM
2 | N=C(N)c1csc(CNC(=O)[C@@H]2CC3(CN2C(=O)CNC(=O)c2ccc(-c4ccccc4)cn2)OCCO3)c1 [Compound 48, (S)—N-((4-carbamimidoylthiophen-2-yl)methyl)-7-((5-phenylpicolinoyl)glycyl)-1,4-dioxa-7-azaspiro[4.4]nonane-8-carboxamide] | < 100 nM
3 | C[C@@H](NC(=O)[C@@H]1C[C@@H](OC(F)F)CN1C(=O)CNC(=O)c1ccc2c(c1)-c1ccccc1C2(C)C)c1cc(C(=N)N)cs1 [Compound 132, (2S,4R)—N—((R)-1-(4-carbamimidoylthiophen-2-yl)ethyl)-4-(difluoromethoxy)-1-((9,9-dimethyl-9H-fluorene-3-carbonyl)glycyl)pyrrolidine-2-carboxamide] | < 100 nM

Other lines, results leading:

Row | IC50 | Structure (SMILES)
4 | < 100 nM | CC(NC(=O)[C@@H]1C[C@@H](Oc2ccccc2)CN1C(=O)CNC(=O)c1ccc2c(c1)-c1ccccc1C2(F)F)c1cc(C(=N)N)cs1 (stereo in doubt) [Compound 51, (2S,4R)—N—((S)-1-(4-carbamimidoylthiophen-2-yl)ethyl)-1-((9,9-difluoro-9H-fluorene-3-carbonyl)glycyl)-4-phenoxypyrrolidine-2-carboxamide]
5 | < 100 nM | Cc1cc(C(=O)NCC(=O)N2[C@H]3C[C@@]3(C)C[C@H]2C(=O)N[C@H](C)c2cc(C(=N)N)cs2)ccc1Oc1ccc(F)cc1 [Compound 27, (1S,3S,5S)—N—((R)-1-(4-carbamimidoylthiophen-2-yl)ethyl)-2-((4-(4-fluorophenoxy)-3-methylbenzoyl)glycyl)-5-methyl-2-azabicyclo[3.1.0]hexane-3-carboxamide]
6 | < 100 nM | C[C@@H](NC(=O)[C@@H]1C[C@]2(C)C[C@@H]2N1C(=O)CNC(=O)c1ccc(Oc2ccc(F)cc2)cc1)c1ccc(C(=N)N)s1 [Compound 67, (1S,3S,5S)—N—((R)-1-(5-carbamimidoylthiophen-2-yl)ethyl)-2-((4-(4-fluorophenoxy)benzoyl)glycyl)-5-methyl-2-azabicyclo[3.1.0]hexane-3-carboxamide]
7 | < 100 nM | C[C@@H](NC(=O)[C@@H]1C[C@H](C2OCCCO2)CN1C(=O)CNC(=O)c1ccc(Oc2ccc(F)cc2)cc1)c1cc(C(=N)N)cs1 (relative stereo) [Compound 161, (2S,4S*)—N—((R)-1-(4-carbamimidoylthiophen-2-yl)ethyl)-4-(1,3-dioxan-2-yl)-1-((4-(4-fluorophenoxy)benzoyl)glycyl)pyrrolidine-2-carboxamide]
8 | < 100 nM | COC[C@H]1C[C@@H](C(=O)N[C@H](C)c2cc(C(=N)N)cs2)N(C(=O)CNC(=O)c2ccc(Oc3ccc(F)cc3)cc2)C1 (relative stereo) [Compound 80, (2S,4S*)—N—((R)-1-(4-carbamimidoylthiophen-2-yl)ethyl)-1-((4-(4-fluorophenoxy)benzoyl)glycyl)-4-(methoxymethyl)pyrrolidine-2-carboxamide]
9 | < 100 nM | C[C@@H](NC(=O)[C@@H]1CC2(CN1C(=O)CNC(=O)c1ccc3c(c1)-c1ccccc1C3F)OCCO2)c1cc(C(=N)N)cs1 (stereo partly drawn) [Compound 127, (8S)—N—((R)-1-(4-carbamimidoylthiophen-2-yl)ethyl)-7-((9-fluoro-9H-fluorene-3-carbonyl)glycyl)-1,4-dioxa-7-azaspiro[4.4]nonane-8-carboxamide]

same assay, conditions: Human complement C1s enzyme 1.16 nM, substrate Z-L-Lys-SBzl 100 μM, assay of Example 3; read-out: IC50 (Stars)

Row | Structure (SMILES) | IC50
10 | C[C@@H](NC(=O)[C@@H]1C[C@@](C)(F)CN1C(=O)CNC(=O)c1ccc2c(c1)-c1ccccc1C2(F)F)c1cc(C(=N)N)cs1 [Compound 268, (2S,4R)—N—((R)-1-(4-carbamimidoylthiophen-2-yl)ethyl)-1-((9,9-difluoro-9H-fluorene-3-carbonyl)glycyl)-4-fluoro-4-methylpyrrolidine-2-carboxamide] | < 100 nM
11 | N=C(N)c1csc(CNC(=O)[C@@H]2CC3(CN2C(=O)CNC(=O)c2ccc(-c4ccc(C(=O)O)cc4)cc2)OCCO3)c1 [Compound 214, (S)-4′-((2-(8-(((4-carbamimidoylthiophen-2-yl)methyl)carbamoyl)-1,4-dioxa-7-azaspiro[4.4]nonan-7-yl)-2-oxoethyl)carbamoyl)-[1,1′-biphenyl]-4-carboxylic acid] | < 100 nM
12 | Cc1nc(F)ccc1-c1ccc(C(=O)NCC(=O)N2CC3(C[C@H]2C(=O)NCc2cc(C(=N)N)cs2)OCCO3)cc1 [Compound 211, (S)—N-((4-carbamimidoylthiophen-2-yl)methyl)-7-((4-(6-fluoro-2-methylpyridin-3-yl)benzoyl)glycyl)-1,4-dioxa-7-azaspiro[4.4]nonane-8-carboxamide] | < 100 nM
13 | O=C(NCC(=O)N1CC2(C[C@H]1C(=O)NCc1cc(Nc3ncc[nH]3)cs1)OCCO2)c1ccc(Oc2ccc(F)cc2)cc1 [Compound 283, (S)-N-((4-((1H-imidazol-2-yl)amino)thiophen-2-yl)methyl)-7-((4-(4-fluorophenoxy)benzoyl)glycyl)-1,4-dioxa-7-azaspiro[4.4]nonane-8-carboxamide] | > 1000 nM
14 | Cc1c2ccccc2cc2cc(C(=O)NCC(=O)N3CC4(C[C@H]3C(=O)N[C@H](C)c3cc(C(=N)N)cs3)OCCO4)ccc12 [Compound 325, (S)—N—((R)-1-(4-carbamimidoylthiophen-2-yl)ethyl)-7-((10-methylanthracene-2-carbonyl)glycyl)-1,4-dioxa-7-azaspiro[4.4]nonane-8-carboxamide] | < 100 nM

The remaining lines, values ahead:

Row | IC50 | Structure (SMILES)
15 | < 100 nM | COC(=O)/N=C(/N)c1csc([C@@H](C)NC(=O)[C@@H]2C[C@](F)(CF)CN2C(=O)CNC(=O)c2ccc(Oc3ccc(F)cc3)cc2)c1 [Compound 233, methyl ((E)-amino(5-((R)-1-((2S,4R)-4-fluoro-4-(fluoromethyl)-1-((4-(4-fluorophenoxy)benzoyl)glycyl)pyrrolidine-2-carboxamido)ethyl)thiophen-3-yl)methylene)carbamate]
16 | < 100 nM | C[C@@H](NC(=O)[C@@H]1C[C@@H](S(C)(=O)=O)CN1C(=O)CNC(=O)c1ccc2oc3ccccc3c2c1)c1cc(C(=N)N)cs1 [Compound 220, (2S,4R)—N—((R)-1-(4-carbamimidoylthiophen-2-yl)ethyl)-1-((dibenzo[b,d]furan-2-carbonyl)glycyl)-4-(methylsulfonyl)pyrrolidine-2-carboxamide]
17 | < 100 nM | C[C@@H](NC(=O)[C@@H]1C[C@](F)(CF)CN1C(=O)CNC(=O)c1cccc(-c2ccc(F)cc2)c1)c1cc(C(=N)N)cs1 [Compound 329, (2S,4R)—N—((R)-1-(4-carbamimidoylthiophen-2-yl)ethyl)-4-fluoro-1-((4′-fluoro-[1,1′-biphenyl]-3-carbonyl)glycyl)-4-(fluoromethyl)pyrrolidine-2-carboxamide]

same assay, conditions: Human complement C1s enzyme 1.16 nM, substrate Z-L-Lys-SBzl; assay of Example 3; read-out: IC50 (Stars)

Row | Structure (SMILES) | IC50
18 | CS(=O)(=O)[C@@H]1C[C@@H](C(=O)N[C@H](CO)c2cc(C(=N)N)cs2)N(C(=O)CNC(=O)c2cccc(-c3ccc(F)cc3)c2)C1 [Compound 402, (2S,4R)—N—((R)-1-(4-carbamimidoylthiophen-2-yl)-2-hydroxyethyl)-1-((4′-fluoro-[1,1′-biphenyl]-3-carbonyl)glycyl)-4-(methylsulfonyl)pyrrolidine-2-carboxamide] | < 100 nM
